# Square brackets hold non-standard residues; d marks the D form. Peptide text beside a SMILES is read from it. * marks the point of attachment. Dolaproine = CO[C@@H]([C@@H]1CCCN1)[C@@H](C)C(=O)O; Hexanoyl(6-maleimido) = O=C1C=CC(=O)N1CCCCCC(=O)*; Dil = CC[C@H](C)[C@H](NC)[C@@H](CC(=O)O)OC; X1 = C[C@@H](N*)[C@@H](O)c1ccccc1; NMeV = CN[C@H](C(=O)O)C(C)C
# How the values were obtained:
# 293-GCC#2 tumors [1] = assay: PD study: phosphohistone H3 positive tumor cells after single iv dose; type: in vivo, mice; conditions: 75 or 150 ug/kg toxin
# Method: An alternative tumor model used 293-GCC#2 cells. A PD study for 5F9 ADCs in 293-GCC#2 tumor bearing mice was performed. Mice were dosed with single doses of 5F9vcMMAF at 75 ug/kg or 150 ug/kg and serum was taken at timepoints from 1 hr through 4 days for PD analysis of phosphohistone H3 to test antimitotic effects of the toxin on tumor cells. Phospho-histone H3 was detected by antibody (Upstate Biotechnology, now Millipore, Billerica, Mass.) staining of paraffin embedded sections of tumors.
# Similar studies measured the phosphohistone levels in 293-GCC#2 tumor-bearing mice treated with 5F9vcMMAF, 5F9-SPDB-DM4 and 5F9-SMCC-DM1. Mice were dosed with single doses at 150 ug/kg and serum was taken at timepoints from 1 hr through 21 days for PK analysis of both total antibody and toxin-conjugated antibody. The percentage of phosphohistone H3 positive cells in 293-GCC#2 tumors increased in response to all three ADCS: 5F9vcMMAF, 5F9-SMCC-DM1 and 5F9-SPDB-DM4. Maximal phosphohistone H3 levels were 3- to 5-fold increased over baseline, with peaks at 24 hours post-injection.
# 293-GCC#2 tumors [2] = assay: Efficacy study with 5F9vcMMAF and 5F9-DMx in 293-GCC#2 s.c. tumors; type: in vivo; conditions: 293-GCC#2 bearing SCID mice, 75 and 150 ug/kg toxin, q14d schedule
# Method: 5F9-SPDB-DM4, 5F9-SMCC-DM1 and 5F9vcMMAF were tested for efficacy in the 293-GCC#2 tumor model at two doses (75 μg/kg and 150 μg/kg toxin), on a q14d×5 schedule. Specifically, this study included vehicle-treated control, Sc209-DM1 (150 μg/kg DM1 eq), Sc209-DM4 (150 μg/kg DM4 eq), Sc209-vcMMAF (150 μg/kg MMAF eq), 5F9-DM1 (150 μg/kg DM1 eq), 5F9-DM1 (75 μg/kg DM1 eq), 5F9-DM4 (150 μg/kg DM4 eg), 5F9-DM4 (75 μg/kg DM4 eq), 5F9-vcMMAF (150 μg/kg MMAF eq), and 5F9-vcMMAF (75 μg/kg MMAF eq). Taconic females mice bearing 293-GCC#2 cells (10 mice per group) were used.
# FIG. 1 depicts tumor growth in 293-GCC#2 bearing SCID mice treated with 5F9vc-MMAF, -DM1, and -DM4 on a q14d schedule. […] Therefore at these doses and schedules, 5F9-SPDB-DM4 had the greatest efficacious differential from its control conjugate.
# 5F9-SPDB-DM4 and 5F9-SMCC-DM1 were tested for efficacy in the 293-GCC#2 tumor model at two doses (75 ug/kg and 150 ug/kg toxin) on a q7d×5 schedule. Specifically, this study included vehicle-treated control, 5F9 alone (15 mg/kg), DM1 (300 μg/kg), DM4 (300 μg/kg), Sc209-DM1 (150 μg/kg DM1 eq), Sc209-DM4 (150 μg/kg DM4 eq), Sc209-vcMMAF (150 μg/kg MMAF eq), 5F9-DM1 (150 μg/kg DM1 eq), 5F9-DM1 (75 μg/kg DM1 eq), 5F9-DM4 (150 μg/kg DM4 eq), and 5F9-DM4 (75 μg/kg DM4 eq). Taconic females mice bearing 293-GCC#2 cells (10 mice per group) were used.
# 293 GCC#2 tumors = assay: Efficacy study with auristatin conjugates in 293 GCC#2 tumors; type: in vivo, SCID mice; design: TGI (tumor growth inhibition) / TGD (tumor growth delay): unit not given here
# Method: 293 GCC#2 tumor-bearing SCID mice were treated with 5F9 conjugates with vc MMAE, vcMMAF or mcMMAF at three doses in comparison with 209 conjugates of these toxins or with free toxins or vehicle control. Doses were administered iv on a q7d×4 schedule. Tumors were harvested at days 3, 7, 10, 13 and 17. […] Table 18 provides a summary of the results (TGI=tumor growth inhibition, T/C=treatment/control, TGD=tumor growth delay, CR/PR=complete response/partial response; p value=measure to judge statistical significance, NS=not significant).
# All three of these ADCs were efficacious in the 293 GCC#2 model on a q7d schedule.
# 293 GCC#2 cells = type: cell-based, human; conditions: 293 cell model (293 GCC#2 vs control cells / 209 ADCs)
# HT29 GCC#5 cells = type: cell-based, human; conditions: HT29 cell model
# HT29-GCC#5 tumors = assay: Pilot efficacy studies in HT29-GCC#5 s.c. tumors; type: in vivo, mice; conditions: 150 μg/kg on a q3d×5 schedule
# Method: Studies were performed to determine efficacious conjugates and dosage regimens in mice bearing HT29-GCC#5 tumors. Mice were dosed with single or multiple doses. These studies determined that there was toxicity at too frequent dosing at higher levels of toxin conjugate (e.g., 150 μg/kg 5F9vcMMAF on a q3d×5 schedule). Another study determined that q14d×5 schedule was too infrequent in this model to allow some toxin conjugates to show significant efficacy vs. controls.
# [3] = tested on: PHTX-9c primary human colon tumor xenograft; assay: Antitumor activity in PHTX-9c primary human colon tumor xenograft (Study A and Study B); type: in vivo, CB-17 SCID mice
# Method: Female CB-17 SCID mice (eight weeks old) were inoculated subcutaneously (SC) into the flank with PHTX-9c tumor fragments (2 mm×2 mm). Tumor growth was monitored twice per week using vernier calipers and the mean tumor volume was calculated using the formula (0.5×[length×width^2]). When the mean tumor volume reached approximately 150 mm^3 (Study A) or 160 mm^3 (Study B), animals were randomized into treatment groups (n=10/group for Study A and n=9/group for Study B).
# Doses were administered on Days 1, 8, and 15 for the QW schedule and Days 1, 4, 8, 11, 15, and 18 for the BIW schedule. […] The equivalent dose of linker+MMAE is 4% of the 5F9-vcMMAE dose. These calculations are based on a mean 3.9 MMAE molecules per antibody and a free antibody molecular weight of 150 kD. Actual antibody molecular weight will vary slightly due to degree of glycosylation.
# Tumor volume and body weight were measured twice weekly and were continued beyond the treatment period to measure regrowth kinetics, as evidenced by tumor growth delay (TGD). Tumor volume measurements were continued until tumor volume reached 10% of the body weight in a single mouse within a treatment group, at which time the group was terminated. The percentage of tumor growth inhibition (TGI) ([mean tumor volume of the control group−mean tumor volume of a treated group]/mean tumor volume of the control group; a T/C ratio) was determined on Day 20. The T/C ratios across a treatment group were compared to the T/C ratios of the control group using a two-tailed Welch's t-test.
# The differences in the tumor growth trends over time between pairs of treatment groups were assessed using linear mixed effects regression models. These models account for the fact that each animal was measured at multiple time points. A separate model was fit for each comparison, and the areas under the curve (AUC) for each treatment group were calculated using the predicted values from the model. The percent decrease in AUC (dAUC) relative to the reference group was then calculated.
# CT26 hGCC/luc #32 cells = assay: Pilot efficacy study with naked antibody in CT26 hGCC/luc #32 disseminated model; conditions: 40 mg/kg
compound,measurement,setting,value
5F9-SMCC-DM1: 5F9 conjugated to DM1 using SMCC heterobifunctional crosslinker,Percentage of phosphohistone H3 positive cells in 293-GCC#2 tumors,293-GCC#2 tumors [1],increased
same,Tumor growth (efficacy),293-GCC#2 tumors [2],"efficacious, however less so than 5F9-SPDB-DM4 at 150 ug/kg"
5F9-vcMMAE: 5F9 mAb conjugated to MMAE through the vc (Val-Cit) linker; average drug loading about 3.6,T/C (treatment/control),293 GCC#2 tumors; 75 μg/kg iv q7d×4,0.45
same,TGD (tumor growth delay),293 GCC#2 tumors; 75 μg/kg iv q7d×4,4.4
same,TGI (tumor growth inhibition),293 GCC#2 tumors; 75 μg/kg iv q7d×4,54.5
same,T/C (treatment/control),293 GCC#2 tumors; 150 μg/kg iv q7d×4,0.17
same,TGI (tumor growth inhibition),293 GCC#2 tumors; 150 μg/kg iv q7d×4,83.5
same,T/C (treatment/control),293 GCC#2 tumors; 300 μg/kg iv q7d×4,0.03
same,TGI (tumor growth inhibition),293 GCC#2 tumors; 300 μg/kg iv q7d×4,96.9
5F9-vcMMAF: 5F9 anti-GCC antibody molecule conjugated with mc-vc-MMAF,Percentage of phosphohistone H3 positive cells in 293-GCC#2 tumors,293-GCC#2 tumors [1],increased
same,Tumor growth (efficacy),293-GCC#2 tumors [2],the most efficacious
same,Target enhanced cell kill,293 GCC#2 cells,target enhanced cell kill
same,T/C (treatment/control),293 GCC#2 tumors; 37.5 μg/kg iv q7d×4,0.35
same,TGD (tumor growth delay),293 GCC#2 tumors; 37.5 μg/kg iv q7d×4,7.1
same,TGI (tumor growth inhibition),293 GCC#2 tumors; 37.5 μg/kg iv q7d×4,65.2
same,T/C (treatment/control),293 GCC#2 tumors; 75 μg/kg iv q7d×4,0.12
same,TGI (tumor growth inhibition),293 GCC#2 tumors; 75 μg/kg iv q7d×4,88.5
same,T/C (treatment/control),293 GCC#2 tumors; 150 μg/kg iv q7d×4,0.03
same,TGI (tumor growth inhibition),293 GCC#2 tumors; 150 μg/kg iv q7d×4,97
same,Tumor growth inhibition (efficacy),"293 GCC#2 tumors; 293 GCC#2 model, iv, q7d×4 schedule",more potent than 5F9-vcMMAE
same,Target enhanced cell kill,HT29 GCC#5 cells,target enhanced cell kill
same,Toxicity,HT29-GCC#5 tumors,toxicity
CC[C@H](C)[C@@H]([C@@H](CC(=O)N1CCC[C@H]1[C@H](OC)[C@@H](C)C(=O)N[C@H](C)[C@@H](O)c1ccccc1)OC)N(C)C(=O)[C@@H](NC(=O)[C@@H](NC)C(C)C)C(C)C [Free MMAE] (H-[NMeV]V[Dil][Dolaproine]-X1),CR/PR (complete response/partial response),293 GCC#2 tumors; 300 μg/kg iv q7d×4,0
same,T/C (treatment/control),293 GCC#2 tumors; 300 μg/kg iv q7d×4,0.64
same,TGD (tumor growth delay),293 GCC#2 tumors; 300 μg/kg iv q7d×4,2
same,TGI (tumor growth inhibition),293 GCC#2 tumors; 300 μg/kg iv q7d×4,35.6
CC[C@H](C)[C@@H]([C@@H](CC(=O)N1CCC[C@H]1[C@H](OC)[C@@H](C)C(=O)N[C@@H](Cc1ccccc1)C(=O)O)OC)N(C)C(=O)[C@@H](NC(=O)[C@H](C(C)C)N(C)C(=O)CCCCCN1C(=O)C=CC1=O)C(C)C [Free mcMMAF] ({Hexanoyl(6-maleimido)}-[NMeV]V[Dil][Dolaproine]F-OH),CR/PR (complete response/partial response),293 GCC#2 tumors; 150 μg/kg iv q7d×4,0
same,T/C (treatment/control),293 GCC#2 tumors; 150 μg/kg iv q7d×4,1.03
same,TGD (tumor growth delay),293 GCC#2 tumors; 150 μg/kg iv q7d×4,−1.3
same,TGI (tumor growth inhibition),293 GCC#2 tumors; 150 μg/kg iv q7d×4,−3.4
"CC[C@H](C)[C@@H]([C@@H](CC(=O)N1CCC[C@H]1[C@H](OC)[C@@H](C)C(=O)N[C@H](C)[C@@H](O)c1ccccc1)OC)N(C)C(=O)[C@@H](NC(=O)[C@@H](NC)C(C)C)C(C)C [MMAE, monomethyl auristatin E] (H-[NMeV]V[Dil][Dolaproine]-X1)",TGI,[3]; 0.075 mg/kg IV QW,no tumor growth inhibition
same,TGI,[3]; 0.135 mg/kg IV QW,no tumor growth inhibition
same,TGI,[3]; 0.15 mg/kg IV QW,no tumor growth inhibition
same,TGI,"[3]; Study A, 0.075 mg/kg IV QW × 3 doses, Day 20",5.0 (p > 0.05) %
same,TGI,"[3]; Study A, 0.15 mg/kg IV QW × 3 doses, Day 20",11.1 (p > 0.05) %
same,TGI,"[3]; Study B, 0.135 mg/kg IV QW × 3 doses, determined on Day 20",2.2 (p > 0.05) %
"sc209: human IgG1 monoclonal antibody raised against an unrelated target, with no reactivity to GCC; negative control [reference compound]",T/C compared to 0.9% NaCl group,CT26 hGCC/luc #32 cells,0.64
same,"Lung weight, T test P vs. vehicle",CT26 hGCC/luc #32 cells; end of study,0.4

# From US8785600B2, “Anti-GCC antibody molecules and related compositions and methods” (Millennium Pharmaceuticals, Inc., priority 2009, dated 2014)
